Reference: patent US20250009817A1, “IMMUNOMODULATING COMPOSITION CONTAINING GASSERI” (THE CATHOLIC UNIVERSITY OF KOREA INDUSTRY-ACADEMIC …, priority 2023, published 2025)

Tests used:
[1] = system: Breg and B10 cells, and CD19-positive and IL-10-positive cells; assay: Breg, B10 and CD19-positive IL-10-positive cells in LPS-stimulated hPBMC, flow cytometry; assay type: cell-based, human; settings: LPS 100 ng/ml, 24 hours
Description: The immune cell regulatory effect of the combination of FK506 and the microbiomes of the present invention in hPBMC according to LPS was confirmed. Specifically, PBMCs isolated from human peripheral […] were treated with LPS at a concentration of 100 ng/ml to activate immune cells. Thereafter, FK506 alone; or a combination of FK506 and L. gasseri; L. gasseri and L. acidophilus; microbiomes and zinc; or microbiomes, zinc, vitamin B9, and vitamin B12 was treated and cultured for 24 hours. After completion of culture, cells in each group were obtained, and the expression of immune B cells Breg and B10 cells, and CD19-positive and IL-10-positive cells was confirmed using flow cytometry.

Treg = Treg expression in hPBMC under T cell stimulation conditions, flow cytometry; assay type: cell-based, human; settings: anti-CD3 2 μg/ml, 24 hours, FK506 1 nM, microbiomes 10 μg/ml each, zinc 50 μM, B9+B12 20 μM
Description: (§1) It was confirmed whether the combination of FK506 and the microbiomes of the present inention regulated IL-17 and IL-10 in human peripheral blood mononuclear cells (hPBMCs) under T cell stimulation conditions. Specifically, PBMCs isolated from human peripheral blood were treated with anti-CD3 at a concentration of 2 μg/ml to activate T cells. Thereafter, the PBMCs were treated with FK506 alone (1 nM) and a combination of FK506 (1 nM) and L. gasseri (10 μg/ml); L. gasseri (10 μg/ml) and L. acidophilus (10 μg/ml); two microbiomes (each 10 μg/ml) and zinc (50 μM); or two microbiomes (each 10 μg/ml), zinc (50 μM), vitamin B9, and vitamin B12 (B9+B12 20 μM) and cultured for 24 hours. After completion of the culture, the cell culture medium was obtained, and the amounts of IL-17 and IL-10 in the culture medium were measured by ELISA.
It was confirmed whether the combination of FK506 and the microbiomes of the present invention regulated the expression of Treg reduced by treatment with the immunosuppressant. Specifically, cells in each group of Example 8-1 were obtained, and expression of Treg was confirmed by flow cytometry.

[2] = system: acute graft-versus-host disease (aGVHD); assay: Disease activity, body weight and probability of survival in acute graft-versus-host disease animal model; assay type: in vivo, mouse; settings: aGVHD mice, FK506 5 mg/kg, microbiome 400 mg/kg, oral once daily 4 weeks
Description: Specifically, in order to fabricate an aGVHD model, a responder mouse Balb/c (H-2k/d) was subjected to total body irradiation (TBI) of 690 cGy, bone marrow stem cells and splenocytes were isolated from the femur and tibia of a donor mouse C57BL/6 (H-2k/b), and then 5×10^6 bone marrow (BM) stem cells and 5×10^6 splenocytes were transplanted into the responder mouse Balb/c (H-2k/d). Thereafter, after the occurrence of aGVHD, 5 mg/kg of FK506 and 400 mg/kg each of Lactobacillus rhamnosus (LR) or Lactobacillus paracasei (LP) were administered orally once daily for 4 weeks. Disease activity, body weight, and probability of survival of mice in each group were measured once a week to confirm whether the disease activity was suppressed (FIG. 5). As control groups, a syngenic (syn) group transplanted with syngenic cells; a vehicle group, in which aGVHD was induced and saline was injected; and groups administered with FK506, Lactobacillus rhamnosus, and Lactobacillus paracasei alone were used.

IL-17 and IL-10 = IL-17 and IL-10 in culture medium under allo response conditions, ELISA; assay type: cell-based, human; settings: hPBMCs, 72 hours, FK506 1 nM, microbiomes 10 μg/ml each, vs Vehicle group
Description: Specifically, the proliferation of allo response T cells was confirmed for FK506 alone (1 nM) and a combination of FK506 (1 nM) and L. gasseri (10 μg/ml); L. gasseri (10 μg/ml) and L. acidophilus (10 μg/ml); two microbiomes (each 10 μg/ml) and zinc (50 μM); or two microbiomes (each 10 μg/ml), zinc (50 μM), vitamin B9, and vitamin B12 (B9+B12 20 μM). Specifically, different human peripheral blood mononuclear cells (hPBMCs) were inoculated at a ratio of 1:1 (each concentration of 1×10^5 cells) on a 96 well plate coated with a concentration of anti CD3 0.5 μg/ml, treated with the combination in hPBMCs in which allo conditions were induced, and then cultured for 72 hours. Thereafter, 10 μl of CCK8 was treated to each well and reacted for 4 hours, and then the cell proliferation response was measured by absorbance at 450 nm. As a control group, a Vehicle group in which the active ingredient was replaced with a solvent was used.
It was confirmed whether the combination of FK506 and the microbiome of the present invention regulated the expression of inflammation-related factors under allo response conditions. Specifically, a culture medium of each cell cultured in Example 7-1 was obtained, and the amounts of IL-17 as an inflammatory factor and IL-10 as an inflammation regulator in the culture medium were analyzed by ELISA.

CD4+T cells = assay: Alloresponse (T cell proliferation) in allogeneic cell model, 3H thymidine incorporation; assay type: cell-based, mouse; settings: allogeneic co-culture; FK506 0.3 mg/ml; microbiome 100 μg/ml in combination; FIG. 1
Description: To confirm an effect of the combination of FK506 and a microbiome of the present invention on transplantation rejection, an allogeneic cell model was used. Specifically, in a 96 well plate, 2×10^5 CD4+T cells from a normal responder (Bclb/c) per well were mixed and co-cultured with 2×10^5 splenocytes from which T cells derived from an irradiated responder (syngenic) or donor (C57BL/6, stimulator, allogeneic) were removed. During co-culture, an allogeneic model was treated with five types of Lactobacillus bacteria, Lactobacillus acidophilus (LA), L. reuteri (LRe), L. rhamnosus (LRh), L. paracasei (LPC) or L. casei (LC) alone at 1, 10, and 100 μg/ml, or administered in combination with 0.3 mg/ml of FK506. As a control group, a syngenic transplantation group (Syn group) and an allogeneic transplantation group (Allo group) were used. Thereafter, in order to confirm alloresponses in mice of each group, T cell proliferation responses (alloresponses) were confirmed in the cultured cells using a 3H thymidine incorporation method.

IL-17, IL-10, and IFN-γ = assay: IL-17, IL-10 and IFN-γ in hPBMC under T cell stimulation conditions (anti-CD3), ELISA; assay type: cell-based, human; settings: anti-CD3 2 μg/ml, 24 hours, FK506 1 nM, microbiomes 10 μg/ml each
Description: as §1

With `C=CC[C@@H]1/C=C(\C)C[C@H](C)C[C@H](OC)[C@H]2O[C@@](O)(C(=O)C(=O)N3CCCC[C@H]3C(=O)O[C@H](/C(C)=C/[C@@H]3CC[C@@H](O)[C@H](OC)C3)[C@H](C)[C@@H](O)CC1=O)[C@H](C)C[C@@H]2OC.O` [FK506, Tacrolimus] the “expression of B10” value [1] was “decreased”, the “expression of Breg” value ([1]; vs Vehicle group) was “significantly decreased” and the “expression of Treg” value (Treg) was “significantly decreased”. For the same molecule, the probability of survival ([2]; at the end of the experiment) was 60%, the body weight ([2]; compared to the vehicle group) was “increased” and the disease activity ([2]; compared to the vehicle group) was “decreased”. The “expression of IL-10 in the culture medium” value (IL-17 and IL-10) was “significantly decreased”, the “T cell proliferation (alloresponse)” value (CD4+T cells) was “suppressed” and the “amount of IFN-γ” value (IL-17, IL-10, and IFN-γ; vs Vehicle group) was “significantly decreased”. For the same molecule, the “amount of IL-10” value (IL-17, IL-10, and IFN-γ; zinc 50 μM, B9+B12 20 μM) was “not expressed”.
